Key:
psoriasis vulgaris = experiment: Peroral administration to patients with psoriasis vulgaris (case reports); type: in vivo, human; conditions: for psoriasis vulgaris severity: 0.75 µg per day orally
Description: In order to treat this disease, 0.75 µg of la-hydroxyvitamin D3 was orally administered per day.
This patient had been suffering from psoriasis vulgaris for one year, during which period they were under therapy involving external use of corticosteroid. […] Thereafter, the external use of corticosteroid was suspended and only la-hydroxyvitamin D3 was kept administered perorally.
After suspending the external use of corticosteroid, peroral administration of la-hydroxyvitamin D3 in a daily dose of 1 µg was initiated.
This patient had been suffering from psoriasis vulgaris for 2 years.

patients = conditions: human, in vivo, po
Text: the six patients under therapy by oral administration of la-dihydroxyvitamin D3 and the one patient receiving orally administered la,25-dihydroxyvitamin D3 were subjected to the following analyses, tests and measurements at intervals of twice a month in the first two months of administration and once a month in the subsequent period: blood analysis for determining the number of erythrocytes, the number of platelets and the percentage of leucocytes; urine analysis for determining the levels of urinary protein, glucose, pH, acetone and urobilinogen and the presence of occult blood; testing liver functions by determining the levels of blood GOT, GPT and total bilirubin; testing kidney functions by determining the levels of blood creatinine and BUN; and the measurement of blood calcium and inorganic phosphate levels.

[1] = Acute toxicity test (LD50), mice; conditions: mouse, in vivo, 5-week-old ddY mice, Litchfield-Wilcoxon method
Description: (§1) Acute toxicity of la-hydroxyvitamin D3 was evaluated by its peroral and subcutaneous administration to mice and rats.

[2] = Acute toxicity test (LD50), rats; conditions: rat, in vivo, 5-week-old SD-TCL rats, Litchfield-Wilcoxon method
Description: as §1

[3] = patient, daily dose of 1 µg perorally, two months, external corticosteroid suspended

SMILES: C=C1/C(=C\C=C2/CCC[C@]3(C)[C@@H]([C@H](C)CCCC(C)(C)O)CC[C@@H]23)C[C@@H](O)C[C@@H]1O [la,25-dihydroxyvitamin D3]
- dermal lesion condition (psoriasis vulgaris; patient, daily dose of 0.5 µg perorally, three months, diminished rashes and flares): moderate improvement in the dermal lesion condition
- abnormal subjective symptom or objective sign (patients): Not a single patient under therapy had any abnormal subjective symptom or objective sign
- change of blood, urine, liver function, kidney function, blood calcium and inorganic phosphate parameters from values prior to treatment (patients): None of the parameters analyzed showed any abnormal change

SMILES: C=C1/C(=C\C=C2/CCC[C@]3(C)[C@@H]([C@H](C)CCCC(C)C)CC[C@@H]23)C[C@@H](O)C[C@@H]1O [la-hydroxyvitamin D3, 1α-hydroxyvitamin D3]
- dermal lesion condition (psoriasis vulgaris; patient (psoriasis for 6 years), daily dose of 1 µg perorally, three months): moderate improvement in the dermal lesion condition
- dermal lesion condition (psoriasis vulgaris; patient (psoriasis for 25 years), daily dose of 1 µg perorally, three months): moderate improvement in the dermal lesion condition
- psoriasis vulgaris severity (psoriasis vulgaris; patient, a half month after the two months and a half): virtually disappeared
- psoriasis vulgaris severity (psoriasis vulgaris; patient, two months and a half after start): dramatically diminished in severity
- dermal lesion condition (psoriasis vulgaris; patient, 1.0 µg per day orally, four months later, with external corticosteroid, slight loss of dermal pigment remained): improved pronouncedly
- dermal lesion condition (psoriasis vulgaris; patient, 1.0 µg per day orally, two months after start, with external corticosteroid): a sign of improvement in the dermal lesion condition
- dermal lesion condition (psoriasis vulgaris; patient, daily dose of 1 µg orally, two months after start): diminished by a small degree
- dermal lesion condition (psoriasis vulgaris; patient, daily dose of 1 µg orally, two more months later): pronounced improvement in the condition
- condition of the lesion elsewhere on the body (psoriasis vulgaris; [3]): improved markedly
- dermal lesion on the soles (psoriasis vulgaris; [3]): disappeared
- dermal lesion condition (psoriasis vulgaris; patient, peroral only, external corticosteroid suspended, six months later): completely cured
- maintenance of improvement (psoriasis vulgaris; patient, subsequent peroral daily dose of 0.5 ug): improvement could be maintained
- LD50 ([1]; po, Peroral, female): 0.71 mg/kg
- LD50 ([1]; po, Peroral, male): 0.68 mg/kg
- LD50 ([1]; sc, subcutaneous, female): 0.058 mg/kg
- LD50 ([1]; sc, subcutaneous, male): 0.055 mg/kg
- LD50 ([2]; po, Peroral, female): 0.743 mg/kg
- LD50 ([2]; po, Peroral, male): 0.62 mg/kg
- LD50 ([2]; sc, subcutaneous, female): 0.04 mg/kg
- LD50 ([2]; sc, subcutaneous, male): 0.056 mg/kg
- abnormal subjective symptom or objective sign (patients): Not a single patient under therapy had any abnormal subjective symptom or objective sign
- change of blood, urine, liver function, kidney function, blood calcium and inorganic phosphate parameters from values prior to treatment (patients): None of the parameters analyzed showed any abnormal change

Source: patent EP0215956A1, “COMPOSITION FOR TREATING SKIN DISEASE” (priority 1985, dated 1986)
